Laboratory results reported in the SangsterLogP compilation.

assay: method code SF, from DOI: 10.1039/p29920001643

In order of falling logP:
1. c1ccc(-c2nonc2-c2ccccc2)cc1  3.83
2. [O-][n+]1onc(Cc2ccccc2)c1Cc1ccccc1  3.65
3. [O-][n+]1onc(-c2ccccc2)c1-c1ccccc1  3.64
4. Clc1nonc1-c1ccccc1  3.2
5. Cc1nonc1Sc1ccccc1  2.92
6. O=Cc1c(-c2ccccc2)no[n+]1[O-]  2.92
7. Cc1no[n+]([O-])c1Sc1ccccc1  2.74
8. [O-][n+]1onc(Cl)c1-c1ccccc1  2.7
9. O=[N+]([O-])c1nonc1-c1ccccc1  2.63
10. O=Cc1no[n+]([O-])c1-c1ccccc1  2.61
11. Cc1nonc1-c1ccccc1  2.59
12. Cc1nonc1S(=O)(=O)c1ccccc1  2.36
13. Cc1no[n+]([O-])c1Cc1ccccc1  2.22
14. Cc1nonc1Cc1ccc([N+](=O)[O-])cc1  2.21
15. Cc1c(-c2ccccc2)no[n+]1[O-]  2.17
16. Cc1no[n+]([O-])c1-c1ccccc1  2.16
17. Cc1c(Cc2ccccc2)no[n+]1[O-]  2.08
18. Cc1c(S(=O)(=O)c2ccccc2)no[n+]1[O-]  2.03
19. c1ccc2nsnc2c1  1.98
20. OCc1nonc1-c1ccccc1  1.92
21. Nc1nonc1-c1ccccc1  1.81
22. [O-][n+]1onc(-c2ccccc2)c1CO  1.77
23. Cc1nonc1S(=O)c1ccccc1 (stereo unspecified)  1.76
24. Cc1no[n+]([O-])c1S(=O)c1ccccc1 (stereo unspecified)  1.75
25. CCCc1nonc1C  1.71
26. c1ccc2nonc2c1  1.69
27. [O-][n+]1onc(CO)c1-c1ccccc1  1.64
28. Cc1c(S(=O)c2ccccc2)no[n+]1[O-] (stereo unspecified)  1.5
29. Nc1no[n+]([O-])c1-c1ccccc1  1.47
30. [O-][n+]1onc2ccccc21  1.43
31. Nc1c(-c2ccccc2)no[n+]1[O-]  1.42
32. Nc1nonc1NC(=O)c1ccccc1  1.41
33. Cc1no[n+]([O-])c1C=O  1.29
34. Cc1nsnc1C  1.28
35. CCc1nonc1C  1.18
36. Cc1c(Cl)no[n+]1[O-]  1.02
37. Cc1c(C=O)no[n+]1[O-]  1.02
38. CC(=O)c1no[n+]([O-])c1C  0.98
39. Cc1nonc1[N+](=O)[O-]  0.97
40. COC(=O)c1nonc1C  0.94
41. Cc1no[n+]([O-])c1Cl  0.9
42. CC(=O)c1c(C)no[n+]1[O-]  0.8
43. Cc1nonc1C  0.71
44. COC(=O)c1c(C)no[n+]1[O-]  0.69
45. CCS(=O)(=O)c1no[n+]([O-])c1C  0.65
46. CNC(=O)c1nonc1C  0.56
47. COC(=O)c1no[n+]([O-])c1C  0.56
48. CCNc1nonc1N  0.51
49. COC(=O)Nc1nonc1C  0.42
50. Cc1no[n+]([O-])c1C(N)=O  0.36
51. Cc1nonc1C(N)=O  0.31
52. CNC(=O)Nc1nonc1C  0.3
53. Cc1no[n+]([O-])c1C  0.23
54. CC(=O)Nc1nonc1C  0.17
55. c1cnon1  0.16
56. Cc1nonc1N  0.09
57. Cc1c(C(N)=O)no[n+]1[O-]  0.03
58. Cc1c(N)no[n+]1[O-]  -0.17
59. CC(=O)Nc1nonc1N  -0.23
60. Cc1no[n+]([O-])c1N  -0.32
61. Nc1nonc1N  -0.49
